Laboratory results from US20250145594A1, “MODULATORS OF THE INTEGRATED STRESS PATHWAY” (Calico Life Sciences LLC, priority 2020, published 2025).

Tested on: ATF4 luciferase reporter in HEK293T cells
Assay: ATF4-Luc assay (in vitro model of VWMD)
Assay type: cell-based, human
Details: Homo sapiens, HEK-293T, 7 h, HEK293T cells carrying the ATF4 luciferase reporter, 1 μg/mL tunicamycin, One Glo luminescence
Description: In order to test exemplary compounds of the invention in a cellular context, a stable VWMD cell line was first constructed. The ATF4 reporter was prepared by fusing the human full-length ATF4 5′-UTR (NCBI Accession No. BC022088.2) in front of the firefly luciferase (FLuc) coding sequence lacking the initiator methionine as described in Sidrauski et al (eLife 2013). The construct was used to produce recombinant retroviruses using standard methods and the resulting viral supernatant was used to transduce HEK293T cells, which were then subsequently selected with puromycin to generate a stable cell line.
HEK293T cells carrying the ATF4 luciferase reporter were plated on polylysine coated 384-well plates (Greiner Bio-one) at 30,000 cells per well. Cells were treated the next day with 1 μg/mL tunicamycin and 200 nM of a compound of Formula (I) for 7 hours. Luminescence was measured using One Glo (Promega) as specified by the manufacturer. Cells were maintained in DMEM with L-glutamine supplemented with 10% heat-inactivated FBS (Gibco) and Antibiotic-Antimycotic solution (Gibco).
Table 4 below summarizes the EC50 data obtained using the ATF4-Luc assay for exemplary compounds of the invention.

First: CC1(C(F)(F)F)CCCN1C(=O)c1cnn(C23CC(NC(=O)[C@H]4C[C@@H](O)c5cc(Cl)ccc5O4)(C2)C3)c1 (stereo partly drawn) [Compound 328, (2R,4R)-6-chloro-4-hydroxy-N-(3-{4-[2-methyl-2-(trifluoromethyl)pyrrolidine-1-carbonyl]-1H-pyrazol-1-yl}bicyclo[1.1.1]pentan-1-yl)-3,4-dihydro-2H-1-benzopyran-2-carboxamide]
Second: O=C(NC12CC(n3cc(C(=O)N4CC(OC(F)(F)F)C4)cn3)(C1)C2)[C@H]1C[C@@H](O)c2cc(Cl)ccc2O1 [Compound 341, (2R,4R)-6-chloro-4-hydroxy-N-(3-{4-[3-(trifluoromethoxy)azetidine-1-carbonyl]-1H-pyrazol-1-yl}bicyclo[1.1.1]pentan-1-yl)-3,4-dihydro-2H-1-benzopyran-2-carboxamide]
The EC50 of the first is higher: 50 to 250 nM for the first, 10 to 50 nM for the second. The second is the more potent here.

Compared with O=C(NC12CC(n3cc(C(=O)N4CC(COC(F)(F)F)C4)cn3)(C1)C2)[C@H]1C[C@@H](O)c2cc(Cl)ccc2O1 [Compound 329, (2R,4R)-6-chloro-4-hydroxy-N-[3-(4-{3-[(trifluoromethoxy)methyl]azetidine-1-carbonyl)-1H-pyrazol-1-yl}bicyclo[1.1.1]pentan-1-yl]-3,4-dihydro-2H-1-benzopyran-2-carboxamide], O=C(NC12CC(n3cc(C(=O)N4CC(COC(F)F)C4)cn3)(C1)C2)[C@H]1C[C@@H](O)c2cc(Cl)ccc2O1 [Compound 348, (2R,4R)-6-chloro-N-[3-(4-{3-[(difluoromethoxy)methyl]azetidine-1-carbonyl}-1H-pyrazol-1-yl)bicyclo[1.1.1]pentan-1-yl]-4-hydroxy-3,4-dihydro-2H-1-benzopyran-2-carboxamide] is higher in EC50: under 10 nM for the first, 50 to 250 nM for the second.

First: O=C(NC12CC(n3cc([C@H]4C[C@@H](OC(F)(F)F)C4)cn3)(C1)C2)[C@H]1C[C@@H](O)c2cc(Cl)ccc2O1 [Compound 330, (2R,4R)-6-chloro-4-hydroxy-N-(3-{4-[cis-3-(trifluoromethoxy)cyclobutyl]-1H-pyrazol-1-yl}bicyclo[1.1.1]pentan-1-yl)-3,4-dihydro-2H-1-benzopyran-2-carboxamide]
Second: O=C(NC12CC(n3cc(CN4CC[C@H](OC(F)(F)F)C4)cn3)(C1)C2)[C@H]1C[C@@H](O)c2cc(Cl)ccc2O1 [Compound 339, (2R,4R)-6-chloro-4-hydroxy-N-[3-(4-{[(3S)-3-(trifluoromethoxy)pyrrolidin-1-yl]methyl}-1H-pyrazol-1-yl)bicyclo[1.1.1]pentan-1-yl]-3,4-dihydro-2H-1-benzopyran-2-carboxamide]
The EC50 of the first is lower: under 10 nM for the first, 250 to 500 nM for the second. The first is the more potent here.

First: O=C(NC12CCC(n3cc(C(=O)N4CC[C@H](OC(F)(F)F)C4)cn3)(CC1)CC2)[C@H]1C[C@@H](O)c2cc(Cl)ccc2O1 [Compound 331, (2R,4R)-6-chloro-4-hydroxy-N-(4-{4-[(3S)-3-(trifluoromethoxy)pyrrolidine-1-carbonyl]-1H-pyrazol-1-yl}bicyclo[2.2.2]octan-1-yl)-3,4-dihydro-2H-1-benzopyran-2-carboxamide]
Second: O=C(NC12CC(OCC(=O)N3CCC(OC(F)(F)F)C3)(C1)C2)[C@H]1C[C@@H](O)c2cc(Cl)ccc2O1 (stereo partly drawn) [Compound 334, (2R,4R)-6-chloro-4-hydroxy-N-(3-{2-oxo-2-[3-(trifluoromethoxy)pyrrolidin-1-yl]ethoxy}bicyclo[1.1.1]pentan-1-yl)-3,4-dihydro-2H-1-benzopyran-2-carboxamide]
The EC50 of the first is lower: under 10 nM for the first, 50 to 250 nM for the second. The first is the more potent here.

O=C(NC12CC(n3cc(-c4ccc(OC(F)F)nc4)cn3)(C1)C2)[C@@H]1C[C@@H](O)c2cc(Cl)ccc2O1 [Compound 332, (2S,4R)-6-chloro-N-(3-{4-[6-(difluoromethoxy)pyridin-3-yl]-1H-pyrazol-1-yl}bicyclo[1.1.1]pentan-1-yl)-4-hydroxy-3,4-dihydro-2H-1-benzopyran-2-carboxamide] and O=C(NC12CC(n3cc(-c4ccc(OC(F)(F)F)nc4)cn3)(C1)C2)[C@H]1C[C@@H](O)c2cc(Cl)ccc2O1 [Compound 350, (2R,4R)-6-chloro-4-hydroxy-N-(3-{4-[6-(trifluoromethoxy)pyridin-3-yl]-1H-pyrazol-1-yl}bicyclo[1.1.1]pentan-1-yl)-3,4-dihydro-2H-1-benzopyran-2-carboxamide] cannot be ordered by EC50: under 10 nM for the first, under 10 nM for the second.

O=C(NC12CC(OCC(=O)N3CC(OC(F)(F)F)C3)(C1)C2)[C@H]1C[C@@H](O)c2cc(Cl)ccc2O1 [Compound 333, (2R,4R)-6-chloro-4-hydroxy-N-(3-{2-oxo-2-[3-(trifluoromethoxy)azetidin-1-yl]ethoxy}bicyclo[1.1.1]pentan-1-yl)-3,4-dihydro-2H-1-benzopyran-2-carboxamide] and O=C(NC12CC(OCC(=O)N3CC(COC(F)(F)F)C3)(C1)C2)[C@H]1C[C@@H](O)c2cc(Cl)ccc2O1 [Compound 335, (2R,4R)-6-chloro-4-hydroxy-N-[3-(2-oxo-2-{3-[(trifluoromethoxy)methyl]azetidin-1-yl}ethoxy)bicyclo[1.1.1]pentan-1-yl]-3,4-dihydro-2H-1-benzopyran-2-carboxamide] fall in the same range of EC50: 50 to 250 nM for the first, 50 to 250 nM for the second.

First: O=C(NC12CC(n3cc(N4CC[C@@H](COC(F)(F)F)C4)cn3)(C1)C2)[C@H]1C[C@@H](O)c2cc(Cl)ccc2O1 [Compound 336, (2R,4R)-6-chloro-4-hydroxy-N-[3-(4-{(3R)-3-[(trifluoromethoxy)methyl]pyrrolidin-1-yl}-1H-pyrazol-1-yl)bicyclo[1.1.1]pentan-1-yl]-3,4-dihydro-2H-1-benzopyran-2-carboxamide]
Second: O=C(NC12CC(n3cc(N4CC(COC(F)(F)F)C4)cn3)(C1)C2)[C@H]1C[C@@H](O)c2cc(Cl)ccc2O1 [Compound 337, (2R,4R)-6-chloro-4-hydroxy-N-[3-(4-{3-[(trifluoromethoxy)methyl]azetidin-1-yl}-1H-pyrazol-1-yl)bicyclo[1.1.1]pentan-1-yl]-3,4-dihydro-2H-1-benzopyran-2-carboxamide]
The EC50 of the first is higher: 50 to 250 nM for the first, 10 to 50 nM for the second. The second is the more potent here.

O=C(NC12CC(n3cc(-c4ccc(OC(F)(F)F)cn4)cn3)(C1)C2)[C@@H]1C[C@H](O)c2cc(C(F)(F)F)ccc2O1 [Compound 338, (2S,4S)-4-hydroxy-N-(3-{4-[5-(trifluoromethoxy)pyridin-2-yl]-1H-pyrazol-1-yl}bicyclo[1.1.1]pentan-1-yl)-6-(trifluoromethyl)-3,4-dihydro-2H-1-benzopyran-2-carboxamide] and O=C(NC12CC(n3cc(-c4ccc(OC(F)(F)F)cn4)cn3)(C1)C2)[C@@H]1C[C@@H](O)c2cc(Cl)ccc2O1 [Compound 346, (2S,4R)-6-chloro-4-hydroxy-N-(3-{4-[5-(trifluoromethoxy)pyridin-2-yl]-1H-pyrazol-1-yl}bicyclo[1.1.1]pentan-1-yl)-3,4-dihydro-2H-1-benzopyran-2-carboxamide] cannot be ordered by EC50: under 10 nM for the first, under 10 nM for the second.

Compared with CC(=O)N1CC=C(c2cnn(C34CC(NC(=O)[C@H]5C[C@@H](O)c6cc(Cl)ccc6O5)(C3)C4)c2)CC1 [Compound 340, (2R,4R)—N-{3-[4-(1-acetyl-1,2,3,6-tetrahydropyridin-4-yl)-1H-pyrazol-1-yl]bicyclo[1.1.1]pentan-1-yl}-6-chloro-4-hydroxy-3,4-dihydro-2H-1-benzopyran-2-carboxamide], O=C(NC12CC(n3cc(-c4cnc(C(F)(F)F)c(F)c4)cn3)(C1)C2)[C@H]1C[C@@H](O)c2cc(Cl)ccc2O1 [Compound 347, (2R,4R)-6-chloro-N-(3-{4-[5-fluoro-6-(trifluoromethyl)pyridin-3-yl]-1H-pyrazol-1-yl}bicyclo[1.1.1]pentan-1-yl)-4-hydroxy-3,4-dihydro-2H-1-benzopyran-2-carboxamide] is lower in EC50: 50 to 250 nM for the first, under 10 nM for the second. The second is the more potent here.

First: O=C(COC12CC(NC(=O)[C@H]3C[C@@H](O)c4cc(Cl)ccc4O3)(C1)C2)N[C@H]1C[C@@H](OC(F)(F)F)C1 [Compound 342, (2R,4R)-6-chloro-4-hydroxy-N-[3-(2-oxo-2-{[cis-3-(trifluoromethoxy)cyclobutyl]amino}ethoxy)bicyclo[1.1.1]pentan-1-yl]-3,4-dihydro-2H-1-benzopyran-2-carboxamide]
Second: O=C(NC12CC(n3cc(-c4ccc(OC(F)(F)F)nc4)cn3)(C1)C2)[C@@H]1C[C@@H](O)c2cc(Cl)ccc2O1 [Compound 351, (2S,4R)-6-chloro-4-hydroxy-N-(3-{4-[6-(trifluoromethoxy)pyridin-3-yl]-1H-pyrazol-1-yl}bicyclo[1.1.1]pentan-1-yl)-3,4-dihydro-2H-1-benzopyran-2-carboxamide]
The EC50 of the first is higher: 10 to 50 nM for the first, under 10 nM for the second.

O=C(NC12CC(n3cnc(-c4ccc(Cl)cc4F)c3)(C1)C2)[C@H]1C[C@@H](O)c2cc(Cl)ccc2O1 [Compound 343, (2R,4R)-6-chloro-N-{3-[4-(4-chloro-2-fluorophenyl)-1H-imidazol-1-yl]bicyclo[1.1.1]pentan-1-yl}-4-hydroxy-3,4-dihydro-2H-1-benzopyran-2-carboxamide] and O=C(NC12CC(n3cnc(-c4c(F)cc(Cl)cc4F)c3)(C1)C2)[C@H]1C[C@@H](O)c2cc(Cl)ccc2O1 [Compound 344, (2R,4R)-6-chloro-N-{3-[4-(4-chloro-2,6-difluorophenyl)-1H-imidazol-1-yl]bicyclo[1.1.1]pentan-1-yl}-4-hydroxy-3,4-dihydro-2H-1-benzopyran-2-carboxamide] cannot be ordered by EC50: under 10 nM for the first, under 10 nM for the second.

With Cn1nc(C23CC(NC(=O)COc4ccc(Cl)c(F)c4)(C2)C3)cc1O[C@H]1C[C@@H](OC(F)(F)F)C1 [Compound 345, 2-(4-chloro-3-fluorophenoxy)-N-[3-(1-methyl-5-{[cis-3-(trifluoromethoxy)cyclobutyl]oxy}-1H-pyrazol-3-yl)bicyclo[1.1.1]pentan-1-yl]acetamide] the EC50 was 50 to 250 nM.
